This is an account of results in patent US7786127B2, “Benzimidazole thiophene compounds” (Glaxo SmithKline LLC, priority 2005, dated 2010).

The term IC50 denotes the point on the concentration scale where inhibition reaches its midpoint.

Some results are limits rather than exact numbers.

Holding throughout (assay type): cell-based
One assay has as its system HCT116. As to the kind of experiment: Methylene blue growth inhibition assay, HCT116. Particulars: Homo sapiens, HCT-116, 72 h. As for the experimental part:
(§1) Generally, exponentially growing cell lines of different tumor origins, cultured in appropriate media containing 10% fetal bovine serum at 37° C. in a 5% CO2 incubator were plated at low density (less than 2000 cells/well) in 96-well plates. Twenty four hours post-plating, cells were treated with different concentrations of test compounds ranging from 10 uM to 0.04 nM. Several wells were left untreated as a control. Seventy two hours post-treatment, cell numbers were determined using 10 μl per well of methylene blue (Sigma M9140) (0.5% in 50:50 Ethanol:water). […] Plates were read on a microplate reader, measuring the OD at 620 nm. […]
(§2) In one assay, normal human foreskin fibroblasts (HFF), human colon (HCT116, RKO), lung (H460, A549) and breast (MCF7) tumor cell lines were cultured in high glucose DMEM (Life Technologies) containing 10% fetal bovine serum (FBS) at 37° C. in a humidified 5% CO2, 95% air incubator. Cells were harvested using trypsin/EDTA, counted using a haemocytometer, and plated in 100 μL of culture media per well, at the following densities, in a 96-well tissue culture plate (Falcon 3075): HFF 5,000 cells/well, HCT116 3,000 cells/well, RKO 2,500 cells/well, H460 2,500 cells/well, A549 5,000 cells/well, MCF7 4,000 cells/well. […] Optical density at 620 nm was measured on a microplate reader. […]

Assay [1] relates to normal human foreskin fibroblasts (HFF). Put plainly: Methylene blue growth inhibition assay, HFF. Particulars: Fibroblast, 72 h. Here is the method:
as §1, §2

A further assay has as its system H460. As to the kind of experiment: Methylene blue growth inhibition assay, H460. Particulars: Homo sapiens, NCI-H460, 72 h. As for the experimental part: as §1, §2
A further assay deals with RKO. Put plainly: Methylene blue growth inhibition assay, RKO. As to conditions: Homo sapiens, 72 h. As for the experimental part:
as §1, §2

The test system of a further assay is A549. As to the kind of experiment: Methylene blue growth inhibition assay, A549. As to conditions: Homo sapiens, 72 h. Here is the method:
as §1, §2

Another assay concerns MCF7. Put plainly: Methylene blue growth inhibition assay, MCF7. As to conditions: Homo sapiens, 72 h. Here is the method:
as §1, §2

As to `C[C@@H](Oc1cc(-n2cnc3ccc(OC4CCN(C)CC4)cc32)sc1C(N)=O)c1ccccc1C(F)(F)F` [Example 7, 5-{6-[(1-Methyl-4-piperidinyl)oxy]-1H-benzimidazol-1-yl}-3-({(1R)-1-[2-(trifluoromethyl)phenyl]ethyl}oxy)-2-thiophenecarboxamide], the IC50 in the assay with HCT116 is less than 100 nM; in assay [1] it was 100 to 1000 nM; in the assay on H460 it was less than 100 nM; in the assay with RKO, less than 100 nM; in the assay with A549 it was less than 100 nM; in the assay with MCF7 it was less than 100 nM.
In the case of `C[C@@H](Oc1cc(-n2cnc3ccc(OC4CCN(C)CC4)cc32)sc1C(N)=O)c1ccccc1Cl` [Example 8, 3-{[(1R)-1-(2-Chlorophenyl)ethyl]oxy}-5-{6-[(1-methyl-4-piperidinyl)oxy]-1H-benzimidazol-1-yl}-2-thiophenecarboxamide], the IC50 (in the assay with HCT116; in assay [1]; in the assay with H460; in the assay with RKO; with A549) was less than 100 nM throughout.
